For assay [1], the system named is EAEC strains 042 and 17-2. The assay can be described thus: Growth and MIC of E. coli / EAEC strains in LB and MinA-G medium. Type of assay: cell-based. The following applies: Escherichia coli; for MIC: static. The method, then:
EAEC strains were grown overnight in MinA-G medium at 37° C. with shaking and used to inoculate fresh MinA-G medium containing a range of NTZ concentrations (0, 5, 10, 15, 20, and 25 μg/ml) to a starting OD600 of 0.1. Growth was recorded as the absorbance at 600 nm at 30-minute intervals over a period of eight hours. […] Motility was assessed in LB soft agar (0.3% agar) containing 0 to 25 μg/ml of NTZ. The diameter of outward spreading was measured daily and inhibition computed as percent of control.

Assay [2] has as its system aggR and aafA transcripts of EAEC 042. The assay can be described thus: qRT-PCR of aggR, aafA and rpoS. The following applies: EAEC 042, MinA-G. It counts as cell-based, Escherichia coli. The method, then: EAEC 042 was grown overnight in MinA-G medium and then diluted to a starting OD600 of 0.05 in three 50 ml MinA-G cultures with 0, 10, and 25 μg/ml NTZ. Bacterial cells were grown with shaking until the cultures reached an OD600 of ˜0.4 and were harvested by centrifugation at 4° C. The pellets were resuspended in 200 μl TE buffer, transferred to polystyrene round bottom 14 ml tubes, and total RNA was extracted by the TES-hot phenol method as previously described (15). The RNA was re-precipitated and washed two times with 500 μl 70% DEPC ethanol to remove any remaining salts. The pellets were dried at 37° C. and suspended in 100 μl DEPC water. RNA concentration was determined with a Nanoprop ND-1000 UV-Vis Spectrophotometer. RNA yields were typically in the 1.6-3.2 μg/μl range. Residual DNA was removed by treatment with TURBO DNase and stored at −80° C. (15).
Primers for real-time qRT-PCR were designed to yield approximately 150 base pair amplicons for the virulence genes aggR and aafA and for the stringent response gene rpoS, which served as an internal control. SuperScript™ II Reverse Transcriptase (Invitrogen) was used to synthesize first-strand cDNA from 1 μg purified RNA with 100 ng random primers (Invitrogen). RNA, random primers, and dNTPs (0.5 mM final concentration) were mixed, heated for 65° C. for 5 min, centrifuged briefly, and quick chilled on ice. […]

For assay [3], the system named is E. coli 042 aggR-lacZ. Put plainly: Reporter gene fusions aggR-lacZ, aafA-phoA. Type of assay: cell-based, Escherichia coli. The following applies: β-galactosidase, static growth, 12 μg/ml NTZ. The method, then: Reporter gene fusions were provided by James Nataro (University of Maryland) and included E. coli 042 aggR-lacZ and E. coli 042 aafA-phoA (3.4.14 and 2.94) (3) and an undefined promoterless lacZ control strain of E. coli 042. Strains were grown without shaking in MinA-G medium supplemented with 0, 12 or 25 μg/ml of NTZ for 16 h at 37° C. β-Galactosidase activity was determined spectrophotometrically and reported in Miller units (24). Alkaline phosphatase activity was also determined spectrophotometrically using p-nitrophenol as previously described (23). All assays were performed in triplicate in three independent experiments and the mean and standard deviation are reported.

The subject of assay [4] is AafA fimbriae of EAEC 042. Put plainly: Fimbrial filaments by SDS-PAGE, immunoblot, immunofluorescence. Type of assay: cell-based, Escherichia coli. To be noted: EAEC 042, MinA-G, 20 μg/ml. On the procedure:
A simplified procedure for mechanical removal of fimbriae was modified from Dodd and Eisenstein (5). […] The cultures were spun down at 4,000 rpm for 5 min at 25° C. Pellets were resuspended in 2 ml PBS, vortexed 2× for 30 sec to shear off flagella and fimbriae, and then centrifuged at 8,000 rpm for 10 min to remove whole cells. The supernatants, containing fimbrial filaments, were transferred to new tubes, and 8 ml of acetone were added to precipitate proteins. Solutions were spun down again at 8,000 rpm for 10 min, and the acetone was decanted. The remaining protein pellets were resuspended in 50 μl PBS and 100 μl 3× loading buffer containing 2-mercaptoethanol.
To analyze the proteins contained in the biofilm, the flasks were rinsed with water to remove residual bacteria, and the biofilms were dissolved in 1-2 ml 1% SDS. 50 μl of each solution was combined with 100 μl 3× loading buffer in PCR tubes. All five samples were run in a NuPAGE 4-12% Bis-Tris gel at 120 V and stained with Coomassie brilliant blue or used directly for transfer of proteins to nitrocellulose.
Ponceau red stained nitrocellulose was used to visualize transferred proteins and immunoblotting protocols used in this study as described (14). […] The slides were washed 3× in PBS, dried and visualized with a Zeiss epi-fluorescence microscope.

Where two headings read alike, the source gives them in different places.

Turning to `CC(=O)Oc1ccccc1C(=O)Nc1ncc([N+](=O)[O-])s1` [Nitazoxanide, 2-(acetyloxy)-N-(5-nitro-2-thiazolyl)benzamide, reference compound], the IC50 is 20 to 25 µg/mL in assay [1] (042AND172, read-out: Concentration for 50% inhibition of aerobic growth, EAEC 17-2, MinA-G, estimated) and 15 to 20 µg/mL in assay [1] (042AND172, read-out: Concentration for 50% inhibition of aerobic growth, EAEC 042, MinA-G, estimated). The MIC in assay [1] (042AND172, E. coli strains, rich LB medium, read-out: MIC in LB medium) is greater than 64 µg/mL; in assay [1] (042AND172, minimal medium with glucose, read-out: MIC in MinA-G medium), roughly 32 µg/mL. Also, the MIC50 in assay [1] (042AND172, EAEC strains, static conditions) was roughly 20 µg/mL. Also, the “Increase in aggR transcript levels over untreated controls” value in assay [2] was roughly 10 fold. The aafA expression result in assay [2] is given as “unaffected”. The “Increase in aggR:lacZ expression over untreated controls” value in assay [3] was roughly 2.5 fold. Moreover, the “Fimbrial filaments from vortexed whole cells” value in assay [4] is “nearly absent”.

The values are drawn from US8835644B2, “Broad spectrum benzothiophene-nitrothiazolide and other antimicrobials” (University of Virginia Patent Foundation, priority 2009, dated 2014).
